Results from patent US20240417410A1, “TRICYCLIC COMPOUNDS FOR THE TREATMENT OF CANCER” (Hoffmann-La Roche Inc., priority 2023, published 2024).
Read-outs that look alike come from different tables or passages of the source.

Tests used:
NCI-H2122 (KRAS G12C) = assay: Washout viability assay; assay type: cell-based; details: for IC50: Homo sapiens; for IC50 shift fold: washout vs no-washout
Procedure: (§1) Cancer cell lines NCI-H358, NCI-H2122, and SW480 (purchased from ATCC) were cultured in RPMI1640 (Thermo Fisher Scientific) medium plus 10% Fetal Bovine Serum (FBS, Thermo Fisher Scientific, 2.5 μg/mL puromycin and 1% Antibiotic-Antimycotic (Thermo Fisher Scientific) and plated at a density of 2,000 cells per well in 96-well assay plates (Corning-3699) and incubated overnight. On the assay day, compounds diluted to a final DMSO concentration of 0.5% were added to the wells. Following a 4-hour incubation period, the culture medium was removed, and the cells were washed three times with RPMI1640 medium only before being cultured in the abovementioned culture medium (RPMI1640+10% FBS+1% antibiotic-antimycotic). After 72 hours, a tenth of the volume of Cell Counting Kit-8 (Dojindo-CK04) was added to each well. The absorbance was measured (OD450 minus OD650) using an EnVision plate reader after a further 2-hour incubation. The IC50 values were calculated by applying a four-parameter sigmoidal concentration-response curve fit to the data.

SW480 (KRAS G12V) = assay: Washout viability assay; assay type: cell-based; details: for IC50: Homo sapiens; for IC50 shift fold: washout vs no-washout
Procedure: as §1

NCI-H358 (KRAS G12C) = assay: Washout viability assay; assay type: cell-based; details: for IC50: Homo sapiens; for IC50 shift fold: washout vs no-washout
Procedure: as §1

SHP-77 xenograft tumor = assay: SHP-77 SCLC xenograft efficacy study; assay type: in vivo; details: for mean tumor growth inhibition (TGI): daily 30 mg/kg p.o., 14 days treatment, SHP-77 xenograft
Text: The purpose of the study was to assess the anti-tumor activity in difficult KRAS mutated xenograft tumor model using SHP-77 (small cell lung cancer, SCLC; ATCC CRL-2195) by examining the time-dependent effects on MAPK pathway modulation and tumor suppression post-administration of Example 24 and reference compound A122.
Female CB17-SCID mice at 6-8 weeks old from Vital River Co., LTD. were used for these studies. In order to generate subcutaneous xenograft tumors, each mouse was inoculated at the right flank with tumor cells in 100 μL of PBS and Matrigel matrix in the right hind flank with 1×10^7 cells. Mouse health was monitored daily, and caliper measurements began when tumors were palpable. Tumor volume measurements were determined utilizing the formula 0.5×L×W^2 in which L refers to length and W refers to width of each tumor. When tumors reached an average tumor volume of approximately 100-200 mm^3 for efficacy study and 300-500 mm^3 for single-dose PK/PD study, mice were randomized into treatment groups.
Mice were treated by oral gavage at 10 mg/kg with either vehicle consisting of DMSO: Solutol HS15: water=10:10:80 (% v/v/v) or compounds (Example 24, A122) in vehicle at indicated doses. For efficacy studies, animals were orally administered daily, tumor volumes and body weights were measured 3 times per week. Study day on efficacy plots indicates the day after which compound treatment was initiated. For single-dose PK/PD study, at the indicated time points after a single dose of Example 24 at the indicated dose levels, tumor samples were collected for PD analysis. RNA extraction and analysis of DUSP6 levels by in tumor tissue were performed as described in Example 134.

CYPA = CYPA (Homo sapiens (Human), UniProt P62937); assay: CYPA binding analysis by surface plasmon resonance (SPR)
Text: The compounds of this invention created a tri-complex involving the active RAS protein and CYPA, necessitating the initial formation of a binary complex through the compound's interaction with CYPA. The stability of the drug-target complex, as indicated by its equilibrium dissociation constant (KD), is thought to influence the length of target engagement, which in turn could lead to a prolonged effect in the washout experiments. Therefore, the objective of this study is to evaluate the binding kinetics of the compounds with CYPA to determine the stability of the CYPA-compound binary complex and to evaluate whether this stability correlates with the sustained inhibition of the target.
All SPR experiments were conducted on a Biacore 8K+ instrument (Cytiva). Recombinant biotinylated CYPA protein with a C-terminal AVI tag was purified and immobilized on flow cell 2 of SA chip (Cytiva, BR100531), with the flow cell 1 as the blank reference. The running buffer was HBS-P+ Buffer (Cytiva, BR100827, 0.01 M HEPES pH 7.4,0.15 M NaCl, 0.05% v/v Surfactant P20), and the flow rate was 10 μL/min. The immobilization level was achieved to about 1800 response units (RU). Compounds were 3-fold serially diluted to 1.5-3333 nM using HBS-P+Buffer with a final DMSO concentration of 1.5%, and then loaded to flow through the chip surface at a rate of 30 μL/min with HBS-P+Buffer containing 1.5% DMSO as the running buffer. Experiments were performed at 25° C. The contact time and dissociation time were set to 60 s and 200 s, respectively. After binding and dissociation of each sample, the chip was regenerated using 1 M NaCl with a short contact time of 19 s at a rate of 60 μL/min. The sensorgrams were analyzed using Biacore Insight Evaluation software with 1:1 kinetics binding model to determine the association rate constant (kon), dissociation rate constant (koff) and equilibrium dissociation constant (KD).

[1] = NCI-H2122 (KRAS G12C), 4-hour treatment, three washes, 72 hours, read-out: Washout IC50
[2] = NCI-H2122, KRAS (G12C), read-out: No-washout IC50
[3] = 4-hour treatment, three washes, 72 hours, read-out: Washout IC50
[4] = NCI-H358 (KRAS G12C), 4-hour treatment, three washes, 72 hours, read-out: Washout IC50
[5] = NCI-H358, KRAS (G12C), read-out: No-washout IC50

CYPA, sequence (P62937 whole entry): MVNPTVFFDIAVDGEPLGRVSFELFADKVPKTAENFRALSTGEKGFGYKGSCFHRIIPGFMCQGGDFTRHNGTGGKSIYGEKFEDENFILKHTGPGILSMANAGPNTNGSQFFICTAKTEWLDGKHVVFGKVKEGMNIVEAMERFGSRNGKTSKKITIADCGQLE

Row | SMILES | IC50 (NCI-H2122 (KRAS G12C); [1]) | IC50 (NCI-H2122 (KRAS G12C); [2]) | IC50 shift fold (NCI-H2122 (KRAS G12C); NCI-H2122 (KRAS G12C)) | IC50 (SW480 (KRAS G12V); [3]) | IC50 (SW480 (KRAS G12V); read-out: No-washout IC50) | IC50 shift fold (SW480 (KRAS G12V)) | IC50 (NCI-H358 (KRAS G12C); [4]) | IC50 (NCI-H358 (KRAS G12C); [5]) | IC50 shift fold (NCI-H358 (KRAS G12C); NCI-H358 (KRAS G12C)) | mean tumor growth inhibition (TGI) (SHP-77 xenograft tumor) | tolerability based on body weights (SHP-77 xenograft tumor; daily administration at 30 mg/kg, SHP-77 xenograft mice) | fold lower KD compared to A122 (CYPA) | fold lower koff compared to A122 (CYPA) | Kd (CYPA; SPR, 25° C., immobilized CYPA) | koff (CYPA; SPR, 25° C., immobilized CYPA) | kon (CYPA; SPR, 25° C., immobilized CYPA)
1 | CO[C@@H](C)c1ncc(N2CCN(C)CC2)cc1-c1c2c3cc(cc4c3n1CCC4)-c1csc(n1)C[C@H](NC(=O)[C@H]1[C@H](C)[C@@H]1C)C(=O)N1CCC[C@H](N1)C(=O)OCC(C)(C)C2 (atropisomer, axis not shown; (M)) [Example 24, (1r,2R,3S)-N-[(7S,13S)-(20M)-20-[2-[(1S)-1-methoxyethyl]-5-(4-methylpiperazin-1-yl)-3-pyridyl]-17,17-dimethyl-8,14-dioxo-15-oxa-4-thia-9,21,30,31-tetrazahexacyclo[23.3.1.1^2,5.1^9,13.0^19,27.0^21,26]hentriaconta-1 (28),2,5 (31), 19,25 (29),26-hexaen-7-yl]-2,3-dimethyl-cyclopropanecarboxamide] | 9 nM | 6.7 nM | 1.3 fold | 8.4 nM | 1.3 nM | 6.7 fold | 5.9 nM | 1 nM | 5.6 fold | 70% | well-tolerated | 2.3 fold | 2.9 fold | 13 nM | 0.019 s⁻¹ | 1.4e+06 M⁻¹ s⁻¹
2 | CCn1c(-c2cc(N3CCN(C)CC3)cnc2[C@H](C)OC)c2c3cc(ccc31)-c1csc(n1)C[C@H](NC(=O)[C@H]1C[C@@H]1C)C(=O)N1CCC[C@H](N1)C(=O)OCC(C)(C)O2 [Example A122, reference compound] | 29 nM | 8 nM | 3.6 fold | 47.3 nM | 2.4 nM | 19.7 fold | 32.1 nM | 2 nM | 16.2 fold | 43% | – | – | – | – | 0.056 s⁻¹ | 1.9e+06 M⁻¹ s⁻¹
